Common to all, as to assay: NCI anticancer screen, dose series, 48 h
Assay [1] deals with SK-OV-3 ovarian.
The subject of assay [2] is SNB-19 CNS.
For assay [3], the system named is HL-60(TB) leukemia.
The subject of assay [4] is UACC-257 melanoma.
Assay [5] relates to MDA-MB-231 breast.
The subject of assay [6] is CCRF-CEM leukemia.
Assay [7] concerns CAKI-1 renal.
Assay [8] deals with IGROV1 ovarian.

The values that follow come from PubChem BioAssay (NCI).

The structures appear in SMILES notation.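 1) Cells in 96-well plates. 2) Compound, 48 h, 5 concentrations. 3) Linear interpolation between surrounding doses. 4) Unreached endpoint = highest concentration. GI50 marks 50% less growth. At the TGI there is no net growth.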 Where only a bound is given, the exact number is not on record here.

`Clc1nc(Cl)c2ncn(C/C=C\Cn3cnc4c(Cl)nc(Cl)nc43)c2n1`: the GI50 is 7.03 µM in assay [1]; 3.13 µM in assay [2]; 3.64 µM in assay [3]; 2.56 µM in assay [4]; 2.72 µM in assay [5]; 0.739 µM in assay [6]. For the same molecule, the GI50 is 1.16 µM in assay [7] and 1.17 µM in assay [8]. The TGI in assay [1] is 20.3 µM; in assay [2], 10.1 µM; in assay [3] it was more than 100 µM; in assay [4] it was 12.1 µM; in assay [5] it was 5.95 µM; in assay [6], 2.36 µM. The TGI came out at 2.41 µM in assay [7] and 2.94 µM in assay [8].

As to `COc1cc2c(/C=C3/C(=O)Nc4ccccc43)c(Cl)n(Cc3ccccc3)c2cc1C`, the GI50 is more than 100 µM in assay [1]; more than 100 µM in assay [2]; 6.61 µM in assay [3]; more than 100 µM in assay [4]; more than 100 µM in assay [5]; 29.1 µM in assay [6]. The GI50 in assay [7] and in assay [8] was more than 100 µM throughout. In addition, the TGI in assay [1], in assay [2], in assay [3], in assay [4], in assay [5] and in assay [6] was more than 100 µM in each case. Further, the TGI in assay [7] and in assay [8] was more than 100 µM each time.

In the case of `COc1cc(C)cc2c1OC(c1ccccc1)CC2=O` (stereo not drawn), the GI50 in assay [1], in assay [2], in assay [3], in assay [4], in assay [5] and in assay [6] was more than 100 µM throughout. In addition, the GI50 in assay [7] and in assay [8] was more than 100 µM each time. Also, the TGI in assay [1], in assay [2], in assay [3], in assay [4], in assay [5] and in assay [6] was more than 100 µM in each case. Further, the TGI in assay [7] and in assay [8] was more than 100 µM in each case.

Take `C[C@]12CC[C@H]3[C@@H](CC=C4C[C@@H](O)CC[C@@]43C)[C@@H]1C/C(=C\c1cccc(OCCN3CCOCC3)c1)[C@@H]2O`: the GI50 is more than 100 µM in assay [1]; more than 100 µM in assay [2]; 21.5 µM in assay [3]; 16.6 µM in assay [4]; 87.6 µM in assay [5]; 41.1 µM in assay [6]. Besides, the GI50 in assay [7] is more than 100 µM; in assay [8], 46 µM. For the same molecule, the TGI in assay [1] is more than 100 µM; in assay [2], more than 100 µM; in assay [3] it was more than 100 µM; in assay [4] it was 84.3 µM; in assay [5], more than 100 µM; in assay [6] it was more than 100 µM. For the same molecule, the TGI in assay [7] and in assay [8] was more than 100 µM each time.

Consider `COc1nccc(-c2c(-c3ccc(F)cc3)ncn2C2CCC(O)CC2)n1` (stereo not drawn), for which the GI50 in assay [1] is 57.3 µM; in assay [2] it was more than 100 µM; in assay [3], 56.7 µM; in assay [4], more than 100 µM; in assay [5], more than 100 µM; in assay [6] it was more than 84.5 µM. Further, the GI50 in assay [7] was 25.2 µM; in assay [8] it was 22.2 µM. The TGI in assay [1], in assay [2], in assay [3], in assay [4], in assay [5] and in assay [6] was more than 100 µM each time. The TGI in assay [7] and in assay [8] was more than 100 µM throughout.

For `Cc1c(C(=O)/C=C/c2ccc(O)cc2)nnn1-c1ccnc2c(C(F)(F)F)cccc12`, the GI50 in assay [1] was 15.1 µM; in assay [2], 24.9 µM; in assay [3], 4.01 µM; in assay [4], 4.4 µM; in assay [5], 21.7 µM; in assay [6], 4.54 µM. Also, the GI50 is 28.6 µM in assay [7] and 21.9 µM in assay [8]. The TGI in assay [1] was 72.5 µM; in assay [2] it was more than 100 µM; in assay [3] it was 31.4 µM; in assay [4], 22.9 µM; in assay [5], more than 100 µM; in assay [6], more than 100 µM. For the same molecule, the TGI in assay [7] and in assay [8] was more than 100 µM each time.

Regarding `FC(F)(F)c1ccc2c(c1)N(CCCN1CCN(C3CC3)CC1)c1ccccc1S2`, the GI50 is 12.9 µM in assay [1]; 17.1 µM in assay [2]; 6.03 µM in assay [3]; 5.57 µM in assay [4]; 10.9 µM in assay [5]; 9.11 µM in assay [6]. Further, the figures for the GI50 in assay [7] and in assay [8] were 3.6 µM and 11.6 µM, respectively. In addition, the TGI in assay [1] turned out to be 26.6 µM; in assay [2], 36.2 µM; in assay [3], 23.3 µM; in assay [4], 19 µM; in assay [5], 26.1 µM; in assay [6], 29.3 µM. For the same molecule, the TGI in assay [7] worked out at 16.1 µM; in assay [8] it was 28.3 µM.

In the case of `Cc1ccc(NC(=O)c2ccnc(C(F)(F)F)c2)cc1-c1cc(OCCO)nc(N2CCOCC2)c1`, the GI50 in assay [1] was 6.39 µM; in assay [2], 3.64 µM; in assay [3], 1.05 µM; in assay [4] it was 0.6 µM; in assay [5] it was 0.688 µM; in assay [6] it was 3.33 µM. Moreover, the GI50 was 1.62 µM in assay [7] and 1.61 µM in assay [8]. The TGI in assay [1] is more than 100 µM; in assay [2], 19.2 µM; in assay [3] it was 6.51 µM; in assay [4] it was 12.4 µM; in assay [5], 17.5 µM; in assay [6], more than 100 µM. Besides, the TGI was found to be 38.7 µM in assay [7] and 40 µM in assay [8].

For `CCN(CC)CCC(=O)Nc1cccc2c1C(=O)c1c(c(O)c3ccccc3c1O)C2=O`, the GI50 was 85.3 µM in assay [1]; 16.8 µM in assay [2]; more than 100 µM in assay [3]; 41.6 µM in assay [4]; 9.64 µM in assay [5]; 1.34 µM in assay [6]. Further, the GI50 in assay [7] is more than 100 µM; in assay [8], 18.9 µM. Also, the TGI in assay [1] is more than 100 µM; in assay [2], 44.8 µM; in assay [3], more than 100 µM; in assay [4], more than 100 µM; in assay [5], 26.1 µM; in assay [6] it was 4.71 µM. In addition, the values for the TGI in assay [7] and in assay [8] were more than 100 µM and 96.8 µM, respectively.

As to `C=C1C(=O)O[C@H]2[C@H]1CC/C(COC(=O)NCCc1ccc(OC)cc1)=C\CC[C@@]1(C)O[C@@H]21`, the GI50 in assay [1] was 23 µM; in assay [2], 8.65 µM; in assay [3], 2.34 µM; in assay [4], 2.49 µM; in assay [5], 2.02 µM; in assay [6], 1.98 µM. Moreover, the GI50 in assay [7] was 2.52 µM; in assay [8], 2.61 µM. Besides, the TGI in assay [1] came out at 65.8 µM; in assay [2] it was 23.1 µM; in assay [3], 5.72 µM; in assay [4] it was 6.85 µM; in assay [5] it was 5.17 µM; in assay [6], 7.74 µM. The TGI in assay [7] came out at 7.53 µM; in assay [8] it was 7.32 µM.

As for `CN(C)c1cccc2[nH]c(-c3[nH]ncc3Nc3ccnc(N)n3)nc12`, the GI50 in assay [1] was 0.073 µM; in assay [2] it was 0.0152 µM; in assay [3] it was less than 0.0141 µM; in assay [4] it was 0.0318 µM; in assay [5], 0.0233 µM; in assay [6] it was less than 0.0118 µM. For the same molecule, the GI50 in assay [7] was less than 0.01 µM; in assay [8], 0.0201 µM. Besides, the TGI in assay [1] came out at 2.38 µM; in assay [2] it was 1.77 µM; in assay [3], 0.0666 µM; in assay [4], 0.324 µM; in assay [5], 0.141 µM; in assay [6], 4.48 µM. Moreover, the figures for the TGI in assay [7] and in assay [8] were 1.01 µM and 0.346 µM, respectively.

With `COc1ccc2c(c1)[nH]c(=O)c1c3cccnc3cn21`, the GI50 in assay [1] was 0.0464 µM; in assay [2] it was 0.0515 µM; in assay [3], 0.0262 µM; in assay [4], 0.677 µM; in assay [5], 0.299 µM; in assay [6], 0.0437 µM. The values for the GI50 in assay [7] and in assay [8] were 0.0405 µM and 0.0627 µM, respectively. Also, the TGI in assay [1] was more than 52 µM; in assay [2], more than 100 µM; in assay [3], 1.21 µM; in assay [4], 25.5 µM; in assay [5], 25.4 µM; in assay [6] it was more than 100 µM. The TGI in assay [7] stood at 14.7 µM; in assay [8] it was 14.6 µM.

Turning to `O=[N+]([O-])c1cccc(-c2nc3sccn3c2-c2ccnc(NCCCNS(=O)(=O)c3ccc(F)cc3)n2)c1`, the GI50 was 4.17 µM in assay [1]; 4.01 µM in assay [2]; 2.55 µM in assay [3]; 2.54 µM in assay [4]; 4.98 µM in assay [5]; 1.2 µM in assay [6]. The GI50 was 2.33 µM in assay [7] and 2.9 µM in assay [8]. Further, the TGI is more than 100 µM in assay [1]; more than 100 µM in assay [2]; 6.69 µM in assay [3]; 7.96 µM in assay [4]; more than 100 µM in assay [5]; 7.81 µM in assay [6]. In addition, the values for the TGI in assay [7] and in assay [8] were more than 100 µM and 26.8 µM, respectively.
